{"source": "patent US6444852B1", "about": "“Amines useful in inhibiting gas hydrate formation” (Goldschmidt Chemical Corporation, priority 1999, dated 2002)", "key": {"[1]": {"assay": "Behavior (solubility/dispersibility) in water and […] brine at 5% concentration", "assay_type": "physicochemical", "details": "5% concentration as is", "description": "The compounds tested are set forth in the following Table 1, CE# denotes a comparative example, whereas S# denotes a compound of the present invention."}, "[2]": {"assay": "Anti-agglomeration of gas hydrates in presence of crude oil (high-pressure autoclave)", "details": "for State of the hydrates after depressurization: 1.125% solvent-free basis in salt water, 3300 psi, 40° F. 16 hours", "experimental": "The comparative test was carried out at a 50:50 oil to water ratio.\nThe crude oil was heated to 150° F. to dissolve waxes. […] To saturate the liquid with gas, after 30 minutes, the agitation was reduced to 100 rpm and the autoclave was cooled at 10° F./hr to 40° F., at which time, agitation was stopped and the 40° F. temperature was maintained for 16 hours.\nAfter the 16 hour time period, agitation was restarted at 500 rpm to determine the torque required and the experiment was run for 5 hours, if possible. The autoclave was then rapidly depressurized and the state of the hydrates was observed."}}, "data": [{"compound": "C12-C14 oxypropyl dibutyl amino propyl tributylammonium dibromide [Sample S5]", "values": [{"measurement": "Behavior in […] Brine", "setting": "[1]", "value": "Soluble"}, {"measurement": "Behavior in Water", "setting": "[1]", "value": "Soluble"}]}, {"compound": "C12-C14 oxypropyl tributylammonium bromide [Sample S1]", "values": [{"measurement": "State of the hydrates after depressurization", "setting": "[2]; oil to water 50:50", "value": "very small particles which were creamy in texture"}, {"measurement": "State of the hydrates after depressurization", "setting": "[2]; oil to water 70:30", "value": "very small particles which were creamy in texture"}, {"measurement": "Gas hydrates on the walls of the reactor", "setting": "[2]; 1.125% solvent-free basis, 70:30 and 50:50 ratios", "value": "No gas hydrates were observed on the walls of the reactor"}, {"measurement": "Effectiveness as anti-agglomeration agent", "setting": "[2]; low use levels", "value": "highly effective"}]}, {"compound": "C12-C14 oxypropyl dibutyl methylammonium methyl sulfate [Sample S2]", "values": [{"measurement": "Behavior in […] Brine", "setting": "[1]", "value": "Soluble"}, {"measurement": "Behavior in Water", "setting": "[1]", "value": "Soluble"}]}, {"compound": "CCCCCCCCCCCCCCCC[N+](CCCC)(CCCC)CCCC.[Br-]", "note": "[CE2, Hexadecyl tributyl ammonium bromide, reference compound]", "values": [{"measurement": "Behavior in Water", "setting": "[1]", "value": "Insoluble"}]}, {"compound": "C12-C14 oxypropyl dibutyl ethylammonium ethylsulfate [Sample S4]", "values": [{"measurement": "Behavior in […] Brine", "setting": "[1]", "value": "Soluble"}, {"measurement": "Behavior in Water", "setting": "[1]", "value": "Soluble"}]}]}
